Experimental data: patent US10626148B2, “Glycopeptides conjugates and uses thereof” (priority 2015, dated 2020)

Assays:
[1] = system: Vancomycin intermediate resistant S. aureus; assay: MIC, micro-dilution broth, VISA; format: cell-based; details: Staphylococcus aureus
Method: (§1) Test compounds were assayed in a micro-dilution broth format. Stock solutions were made by serially diluting the compounds using autoclaved millipore water or broth media. The antibacterial activity of the compounds was determined against gram positive bactreia like methicillin-resistant S. aureus (MRSA), vancomycin-intermediate-resistant S. aureus (VISA), vancomycin-sensitive E. faecium (VSE), vancomycin-resistant E. faecalis and vancomycin-resistant E. faecium (VRE). Antibacterial activity of dipicolyl-vancomycin conjugate conjugate (4) in combination with meropemem was determined against gram-negative bacteria such as K. pneumoniae ATCC BAA2146, clinical isolates K. pneumoniae R3949, K. pneumoniae R3934, E. coli R3336 and A. baumanii R676. Bacteria, to be tested, were grown for about 10 h in the suitable media, MRSA, VISA and gram negative bacteria were grown in Yeast-dextrose broth (about 1 g of beef extract, about 2 g of yeast extract, about 5 g of peptone and about 5 g of NaCl in about 1000 mL of sterile distilled water (pH-7)). For solid media, about 5% agar was used along with above mentioned composition. VSE and VRE were cultured in Brain Heart Infusion broth (Himedia). The bacterial samples were freeze dried and stored at −80° C. About 5 μL of these stocks were added to about 3 mL of the nutrient broth or Brain Heart Infusion broth and the culture was grown for about 6 h at about 37° C. prior to the experiments. This 6 h grown culture gives about 10^9 cfu/mL and this was determined by spread plating method. The 6 h grown culture was diluted to give effective cell concentration of about 10^5 cfu/mL which was then used for determining MIC. Compounds were serially diluted, in sterile water (2-fold dilution is employed) in a way that the working concentration was about 10 μM for MRSA, and VSE while for VRE, VISA and gram negative bacteria; it was about 100 μM. About 50 μL of these serial dilutions were added to the wells of 96 well plate followed by the addition of about 150 μL of bacterial solution. The plates were then incubated at about 37° C., 150 rpm in the incubator and O.D at 620 nm was recorded at an interval of about 24 h using TECAN (Infinite series, M200 pro) Plate Reader. Each concentration had triplicate values and the whole experiment was done at least twice and the MIC value was determined by taking the average of triplicate O.D. values for each concentration and plotting it against concentration. The data was then subjected to sigmoidal fitting.

[2] = system: Vancomycin-resistant E. faecium (VanA, ATCC 51559); assay: MIC, micro-dilution broth, VREm; format: cell-based
Method: as §1

[3] = system: Vancomycin-resistant E. faecalis (VanA, ATCC 51575); assay: MIC, micro-dilution broth, VREs; format: cell-based; details: Enterococcus faecalis, ATCC51575
Method: as §1

[4] = system: NDM-1 expressing Escherichia coli R3336; assay: microbe, parasite or virus in culture; format: cell-based; details: Escherichia coli R3336
Method: as §1
(§2) Then, the antibacterial activities of Dipicolyl-vancomycin conjugate (4) is checked in combination with meropenem against New-Delhi β-lactamase producing gram negative bacteria such as K. pneumoniae BAA2146, clinical isolates K. pneumoniae R3949, K. pneumoniae R3934, E. coli R3336 and A. baumanii R676. […] Further we have also evaluated the antibacterial activity of dipicolyl-vancomycin conjugate (4) in presence of zinc sulphate, wherein it forms dipicolyl-vancomycin-zinc complex (5).

[5] = system: NDM-1 expressing Klebsiella pneumoniae ATCC BAA2146; assay: microbe, parasite or virus in culture; format: cell-based; details: Klebsiella pneumoniae ATCC BAA2146
Method: as §1, §2

[6] = system: NDM-1 expressing Klebsiella pneumoniae R3934; assay: microbe, parasite or virus in culture; format: cell-based; details: Klebsiella pneumoniae R3934
Method: as §1, §2

[7] = system: NDM-1 expressing Klebsiella pneumoniae R3949; assay: microbe, parasite or virus in culture; format: cell-based; details: Klebsiella pneumoniae R3949
Method: as §1, §2

[8] = system: meropenem-resistant NDM-1 K. pneumoniae R3934; assay: Sepsis infection model in mice; format: in vivo; details: CD-1 mice, i.p., 1 h and 24 h post-infection
Method: Sepsis infection model: About six-week-old, female CD-1 mice (weight, ˜19-24 g) were used for the experiments. Mice were infected intraperitoneally (i.p.) with a dose of ˜10^6 CFU/mouse of meropenem-resistant NDM-1 K. pneumoniae R3934. Then, mice were treated twice at 1 h and 24 h post-infection with a specified i.p. dose of either saline, meropenem (10 mg/kg), compound 4 (10 mg/kg), or a combination of compound 4 (10 mg/kg) and meropenem (10 mg/kg). Here, colistin (5 mg/kg) was used as a positive control. Mice were euthanized after 48 h post-infection and then liver, spleen, kidney and lungs were collected to find out the bacterial density in these organs. Organs were placed into 10 ml sterile saline on ice, and then homogenized. The dilutions of the homogenate were plated onto agar plates, which were incubated for 24 h at 37° C. The bacterial titer was expressed as log10 CFU/g of organ weight.

[9] = In-vivo toxicology, systemic toxicity; details: 100 mg/kg
Method: To evaluate maximum tolerability of the new glycopeptide, systemic toxicity was performed on CD-1 female mice. Each mouse was injected with a 0.2 mL of freshly prepared compound 4 solution in saline. The dose of the compound administered was 100 mg/kg (n=5).

[10] = molecular target: T1, NDM-1 enzyme (Klebsiella pneumoniae, UniProt C7C422); assay: NDM-1 enzyme inhibition, nitrocefin substrate; format: biochemical
T1 construct: made in house; host or cells: E. coli BL21 (DE3)
T1 sequence (C7C422 29-270, looked up, species assumed): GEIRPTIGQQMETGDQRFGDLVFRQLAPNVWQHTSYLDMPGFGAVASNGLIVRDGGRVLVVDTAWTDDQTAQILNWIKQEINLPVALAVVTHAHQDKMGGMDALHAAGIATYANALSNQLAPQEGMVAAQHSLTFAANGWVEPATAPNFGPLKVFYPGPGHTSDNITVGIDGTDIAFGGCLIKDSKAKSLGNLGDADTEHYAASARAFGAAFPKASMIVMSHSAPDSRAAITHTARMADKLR
Method: The NDM-1 was produced by E. coli BL21 (DE3) carrying pET30a-NDM-1 in LB medium. Initially, the purified NDM-1 enzyme (5 nM, HEPES buffer, pH-7.4) was supplemented with 20 μM ZnSO4 for 30 min. Next, the enzyme was pre-incubated with the inhibitor (compound 4) for 20 min prior to the initiation of the assay by the addition of the substrate (Nitrocefin, 30 μM). Assays were read in 96-well microplate format at 490 nm (absorbance) using TECAN plate reader (Infinite Pro.) at 37° C. IC50s were deduced from a plot of percent loss of activity versus inhibitor concentration.

With `CN[C@H](CC(C)C)C(=O)N[C@H]1C(=O)N[C@@H](CC(N)=O)C(=O)N[C@H]2C(=O)N[C@H]3C(=O)N[C@H](C(=O)N[C@H](C(=O)NCCCCCCN(Cc4ccccn4)Cc4ccccn4)c4cc(O)cc(O)c4-c4cc3ccc4O)[C@H](O)c3ccc(c(Cl)c3)Oc3cc2cc(c3O[C@H]2OC(CO)[C@H](O)C(O)C2O[C@H]2CC(C)(N)[C@H](O)C(C)O2)Oc2ccc(cc2Cl)[C@H]1O` (some centres unmarked) [Compound 4, Dipicolyl-vancomycin conjugate] the MIC [1] was 0.4 µM, the MIC ([2]; Enterococcus faecium, ATCC51559) was 1.2 µM and the “fold more active than vancomycin” value ([2]; VREm (VRE), ratio of MIC values) was “about 700 fold”. The MIC [3] was 2.5 µM, the “MIC of Meropenem in presence of compound 4 at 12 μM” value (shortened to “MIC of Meropenem”) [4] was 12 µg/mL and the “MIC of Meropenem” value [5] was 1.5 µg/mL. For the same molecule, the “MIC of Meropenem” value [6] was 3.1 µg/mL, the “MIC of Meropenem” value [7] was 3.1 µg/mL and the “in-vivo antibacterial activity, bacterial titer in organs” value ([8]; 10 mg/kg alone) was “did not show any activity”. The “in-vivo antibacterial activity, bacterial titer in organs” value ([8]; compound 4 (10 mg/kg) in combination with meropenem (10 mg/kg)) was “excellent antibacterial activity”, the “survival at 14 days” value ([9]; CD-1 female mice) was “All the mice were found to survive” and the LD50 at 14 days ([9]; female, CD-1, mouse, in vivo) was > 100 mg/kg. For the same molecule, the IC50 [10] was ~6 µM and the “effect on the activity of NDM-1” value ([10]; nitrocefin as substrate) was “potent in-vitro dose-dependent inhibition”.
